Test results: patent US20250171463A1 (BIOGEN MA INC., priority 2022, published 2025)

Each molecule was assayed against T1, EBP (Homo sapiens, UniProt Q15125) (assay: EBP Functional Assay (EBP immunoaffinity LC-MS assay)). Conditions: EBP enzyme from HEK293T cells; 30 min with inhibitor, then zymosterol-d5, 37° C., 4 h; percent conversion to dehydrolathosterol-d5 by LC-APCI MRM MS.
T1 construct: HEK293T cells were utilized as the source of EBP enzyme; endogenous in cells; host or cells: HEK293T
Type: biochemical
Procedure, shortened: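 HEK293T cells served as EBP source; enzyme preincubated 30 min with inhibitor dilutions, then zymosterol-d5 substrate added and incubated 4 h at 37° C. Sterols extracted and quantified by LC-APCI MRM MS; percent conversion to […] fit to 4-parameter logistic for IC50. Tasin-1 reference inhibitor.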

T1 sequence (Q15125 whole entry): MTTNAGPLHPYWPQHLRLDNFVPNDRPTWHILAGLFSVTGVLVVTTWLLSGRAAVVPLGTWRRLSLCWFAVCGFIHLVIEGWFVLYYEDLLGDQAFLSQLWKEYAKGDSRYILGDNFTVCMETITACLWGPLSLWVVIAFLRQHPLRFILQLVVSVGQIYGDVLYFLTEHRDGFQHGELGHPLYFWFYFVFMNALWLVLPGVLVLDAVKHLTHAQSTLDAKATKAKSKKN

| Structure (SMILES) | IC50 [nM] |
| --- | --- |
| Cc1nc(C(C)(F)F)ccc1S(=O)(=O)N1CC2(CN(C3CCOC3)C2)C1 (stereo not drawn) [Example 84] | 250 to 4000 |
| Cc1nc(C(C)(F)F)ccc1S(=O)(=O)N1CC2(CN(CC3CC4(COC4)C3)C2)C1 [Example 114] | < 100 |
| Cc1ccc(S(=O)(=O)N2CCC3(CC2)CN(C2CCOCC2)C3)c(C)c1 [Example 31, 7-((2,4-Dimethylphenyl)sulfonyl)-2-(tetrahydro-2H-pyran-4-yl)-2,7-diazaspiro[3.5]nonane] | 250 to 4000 |
| O=S(=O)(c1cc(C(F)(F)F)nn1CC1CC1)N1CC2(CN(CC3CCOCC3)C2)C1 [Example 66, 2-((1-(cyclopropylmethyl)-3-(trifluoromethyl)-1H-pyrazol-5-yl)sulfonyl)-6-((tetrahydro-2H-pyran-4-yl)methyl)-2,6-diazaspiro[3.3]heptane] | 250 to 4000 |
| O=S(=O)(c1ccc(C(F)(F)F)nc1C(F)(F)F)N1CC2(CN(CC3CCOCC3)C2)C1 [Example 111] | < 100 |
| Cc1nc(OC(F)F)ccc1S(=O)(=O)N1CC2(CN(C3CCOCC3)C2)C1 [Example 94, 2-((6-(difluoromethoxy)-2-methylpyridin-3-yl)sulfonyl)-6-(tetrahydro-2H-pyran-4-yl)-2,6-diazaspiro[3.3]heptane] | < 100 |
| Cc1nc(C(F)F)ccc1S(=O)(=O)N1CC2(CN(C3CC4(COC4)C3)C2)C1 [Example 91, 2-((6-(difluoromethyl)-2-methylpyridin-3-yl)sulfonyl)-6-(2-oxaspiro[3.3]heptan-6-yl)-2,6-diazaspiro[3.3]heptane] | 250 to 4000 |
| O=S(=O)(c1ccc(C2CC2)nc1C(F)(F)F)N1CC2(CN(CC3CCOCC3)C2)C1 [Example 108, 2-((6-cyclopropyl-2-(trifluoromethyl)pyridin-3-yl)sulfonyl)-6-((tetrahydro-2H-pyran-4-yl)methyl)-2,6-diazaspiro[3.3]heptane] | < 100 |
| COC1CCC(N2CC3(C2)CN(S(=O)(=O)c2ccc(C(F)F)nc2C2CC2)C3)CC1 (single isomer, unassigned) [Example 117, 2-((2-cyclopropyl-6-(difluoromethyl)pyridin-3-yl)sulfonyl)-6-(4-methoxycyclohexyl)-2,6-diazaspiro[3.3]heptane] | 250 to 4000 |
| Cc1nc(C(F)(F)F)ccc1S(=O)(=O)N1CC2(CN(CC3CCOC3)C2)C1 (single isomer, unassigned) [Example 161] | 250 to 4000 |
| Cn1nc(C(F)(F)F)cc1S(=O)(=O)N1CC2(CN(CC3CCOC(C)(C)C3)C2)C1 (single isomer, unassigned) [Example 199] | 100 to 250 |
| Cc1cc(OC(F)(F)F)ccc1S(=O)(=O)N1CCC2(CCN(C3CCOCC3)C2)CC1 [Example 41] | < 100 |
| O=S(=O)(c1ccc(OC(F)F)cc1)N1CCOC2(CCN(CC3COC3)C2)C1 (stereo not drawn) [Example 17, 9-((4-(Difluoromethoxy)phenyl)sulfonyl)-2-(oxetan-3-ylmethyl)-6-oxa-2,9-diazaspiro[4.5]decane] | 250 to 4000 |
| O=S(=O)(c1ccc(OC(F)F)cc1)N1CCOC2(CN(C3CCOCC3)C2)C1 [Example 1, 8-((4-(Difluoromethoxy)phenyl)sulfonyl)-2-(tetrahydro-2H-pyran-4-yl)-5-oxa-2,8-diazaspiro[3.5]nonane] | 250 to 4000 |
| Cn1nc(C(F)(F)F)cc1S(=O)(=O)N1CC2(CN(CC3CCOC(C)(C)C3)C2)C1 (single isomer, unassigned) [Example 200] | 100 to 250 |
| Cc1nc(C(F)(F)F)ccc1S(=O)(=O)N1CC2(CN(CC34COC(C)(C3)C4)C2)C1 [Example 73, 2-((1-methyl-2-oxabicyclo[2.1.1]hexan-4-yl)methyl)-6-((2-methyl-6-(trifluoromethyl)pyridin-3-yl)sulfonyl)-2,6-diazaspiro[3.3]heptane] | 100 to 250 |
| O=S(=O)(c1ccc(OC(F)F)cc1)N1CCOC2(CCN(C3CCOC3)CC2)C1 (racemic) [Example 6, 4-((4-(Difluoromethoxy)phenyl)sulfonyl)-9-(tetrahydrofuran-3-yl)-1-oxa-4,9-diazaspiro[5.5]undecane] | 250 to 4000 |
| Cc1cc(C(F)(F)F)ccc1S(=O)(=O)N1CC2(CN(CC3CCOCC3)C2)C1 [Example 194, 2-((2-methyl-4-(trifluoromethyl)phenyl)sulfonyl)-6-((tetrahydro-2H-pyran-4-yl)methyl)-2,6-diazaspiro[3.3]heptane] | < 100 |

| Structure (SMILES) | IC50 [nM] |
| --- | --- |
| Cc1nc(C(F)(F)F)ccc1S(=O)(=O)N1CC2(CN(CCCOC3CCCC3)C2)C1 [Example 176] | < 100 |
| Cc1nc(C(F)(F)F)ccc1S(=O)(=O)N1CC2(CN(C(C)C3CCCOC3)C2)C1 (stereo not drawn) [Example 137] | < 100 |
| COCCOCCCN1CC2(C1)CN(S(=O)(=O)c1ccc(C(F)(F)F)nc1C)C2 [Example 172] | 250 to 4000 |
| Cc1nc(C(C)(F)F)ccc1S(=O)(=O)N1CC2(CN(C3CCOCC3)C2)C1 [Example 79] | < 100 |
| COC(C)CCCN1CC2(C1)CN(S(=O)(=O)c1ccc(C(F)(F)F)nc1C)C2 (stereo not drawn) [Example 180] | 100 to 250 |
| Cc1cc(C(F)(F)F)ncc1S(=O)(=O)N1CC2(CCN(C3CCOCC3)C2)C1 [Example 57] | 100 to 250 |
| Cc1cc(C(F)(F)F)cnc1S(=O)(=O)N1CC2(CN(C3CCOCC3)C2)C1 [Example 221, 2-((3-methyl-5-(trifluoromethyl)pyridin-2-yl)sulfonyl)-6-(tetrahydro-2H-pyran-4-yl)-2,6-diazaspiro[3.3]heptane] | 250 to 4000 |
| Cc1ccc(S(=O)(=O)N2CC3(CN(CC4(O)CCOCC4)C3)C2)c(C)c1 [Example 45, 4-((6-((2,4-Dimethylphenyl)sulfonyl)-2,6-diazaspiro[3.3]heptan-2-yl)methyl)tetrahydro-2H-pyran-4-ol] | 100 to 250 |
| Cn1nc(C(F)(F)F)cc1S(=O)(=O)N1CC2(CN(CC3COCCO3)C2)C1 (racemic) [Example 215, rac-2-((1,4-dioxan-2-yl)methyl)-6-((1-methyl-3-(trifluoromethyl)-1H-pyrazol-5-yl)sulfonyl)-2,6-diazaspiro[3.3]heptane] | 250 to 4000 |
| Cc1nc(C(F)(F)F)ccc1S(=O)(=O)N1CC2(CN(CCOC(C)(C)C)C2)C1 [Example 185] | < 100 |
| Cc1cc(C(F)(F)F)nc(C)c1S(=O)(=O)N1CC2(CN(CC3CCOC3)C2)C1 (racemic) [Example 103] | 100 to 250 |
| Cc1nc(C(C)(F)F)ccc1S(=O)(=O)N1CC2(CN(CC3CCOC3)C2)C1 (stereo not drawn) [Example 85] | < 100 |
| Cc1nc(C(C)(F)F)ccc1S(=O)(=O)N1CC2(CN(CC3(C)COC3)C2)C1 [Example 89] | < 100 |
| O=S(=O)(c1ccc(OC(F)F)cc1)N1CCO[C@]2(CCN(C3CCOCC3)C2)C1 (single isomer, unassigned) [Example 3] | 100 to 250 |
| Cc1nc(C(F)(F)F)ccc1S(=O)(=O)N1CC2(CN(C(C)C3CCOC3)C2)C1 (mixture of isomers) [Example 130] | < 100 |
| Cc1nc(C(F)(F)F)ccc1S(=O)(=O)N1CC2(CN(C3CCOCC3C)C2)C1 (stereo not drawn) [Example 145] | < 100 |
| O=S(=O)(c1cc(F)cc(F)c1)N1CCO[C@]2(CCN(C3CCOCC3)C2)C1 (single isomer, unassigned) [Example 14] | < 100 |
| O=S(=O)(c1ccc(C(F)(F)F)nc1C(F)(F)F)N1CC2(CN(CC3COC3)C2)C1 [Example 112] | 250 to 4000 |
